# Laboratory results published in patent US20050171211A1, “Gingerol analogues and use thereof” (priority 2002, published 2005).
# Read-outs that look alike come from different tables or passages of the source.
# What was measured:
# [1] = Test about suppression of lipid peroxide generation in linoleic acid
# Protocol: Using the compound of the formula (11) as obtained in Example 1 and the compound of the formula (12) as obtained in Example 2, a test about the suppression of lipid peroxide generation in linoleic acid was done. Along with the compounds, dl-α-tocopherol (manufactured by Tokyo Kasei Kogyo Co., Ltd.) was tested similarly, to obtain control data.
# The test procedures are as follows. As a test result, the ratio of residual linoleic acid by the following procedure (3) is described in Table 1.
# (1) After ethanol (2.0 g ) was added to linoleic acid (0.2 g; manufactured by Tokyo Kasei Kogyo Co., Ltd.), a test compound (0.01 g) and a surface active agent Nissan OT-221 (0.4 g; manufactured by NOF Corporation) placed in a 50-ml screw vial, for dissolution, distilled water (17.39 g) was added to the resulting solution for agitation, and was then sealed and left to stand alone in a thermostat at 40° C. Such sample was prepared in a duplex manner.
# A blank test with no test compound added was similarly done.
# (2) The amount of remaining linoleic acid one week, 2 weeks, 3 weeks and 4 weeks after the start of the test was assayed by HPLC.
# The HPLC analytical conditions were as follows. Wavelength for detection: 210 nm. Mobile phase: a mixture solution of a disodium hydrogen phosphate-phosphate buffer adjusted to pH 2.5 and methanol (10:90). Flow: 1 ml/min. Column: ODS-8OTs (4.6 Φmm×150 mm). Column temperature at 40° C.
# (3) Each sample was assayed by HPLC two times. The ratio of remaining linoleic acid was calculated on the basis of the mean of four assay values.
# mushroom tyrosinase = experiment: Test about the inhibition of tyrosinase activity using L-dopa as substrate; format: biochemical; settings: 0.27 or 0.54 μmol in 3 ml enzyme reaction solution, 25° C.
# Protocol: Using the compound of the formula (11) obtained in Example 1, a test about the inhibition of tyrosinase activity using L-dopa as substrate was done. The same test was done about arbutin (manufactured by Tokyo Kasei Kogyo Co., Ltd.), to get control data. The test procedures are as follows. […]
# (2) 0.10 ml of an enzyme solution prepared by dissolving 3.0 mg (2400 units; manufactured by Sigma Corporation) of mushroom tyrosinase in 7.0 ml of distilled water was added to the solution prepared in (1), for agitation for 15 seconds. The resulting solution was retained at 25° C., to measure the absorbance at 475 nm one minute-45 seconds later and 2 minute- 45 seconds later.
# (3) The test procedures above in (1) and (2) were conducted three times for the individual test compounds and blank test (only dimethylsulfoxide), and the resulting mean was inserted in the following calculation formula to determine the ratio (%) of the inhibition of tyrosinase activity. Ratio of inhibition of tyrosinase activity (%)=[(T^1-T^2)/T^1]×100 T^1=difference in absorbance of blank solution between 2 minute-45 seconds later and one minute-45 seconds later T^2=difference in absorbance of solution with addition of test compound between 2 minute-45 seconds later and one minute-45 seconds later
# [2] = Test about scavenging DPPH radical; settings: final concentration 10 μg/mL; for Ratio of scavenging DPPH radical: 20 minutes, darkness, ambient temperature, absorbance at 517 nm
# Protocol: Concerning radical-scavenging activity, a stable radical DPPH (1,1-diphenyl-2-picrylhydrazyl) was used for assaying the radical-scavenging activities of test compounds [the compound of the formula (11) and the compound of the formula (12) and a control sample dl-α-tocopherol (manufactured by Tokyo Kasei Kogyo Co., Ltd.)]. The assay method is as follows. Tris below is an acronym of tris(hydroxymethyl)aminomethane and M represents the concentration unit Mol/L.
# 1 ml of 200 μM DPPH solution in ethanol was added to 800 μl of 100 mM Tris-HCl buffer, pH 7.4 and 200 μl of a test compound solution in ethanol (to a final concentration of 10 μg/mL), for sufficient agitation. After the resulting mixture was left to stand alone in darkness at ambient temperature for 20 minutes, the absorbance at 517 nm was measured (absorbance of the test solutions).
# Meanwhile, 800 μl of 100 mM Tris-HCl buffer, pH 7.4, 200 μl of ethanol and 1 ml of 200 μM DPPH solution in ethanol were used for the same procedures as described above to measure the absorbance to obtain the absorbance of the blank.
# The individual test compounds and the blank were repeatedly treated by the same procedures three times, and the mean of the resulting absorbance values was inserted in the following formula, to calculate the ratio of scavenging DPPH radical. Ratio of scavenging DPPH radical (%)={1-(absorbance of sample solution/absorbance of blank solution)}×100
Structure (SMILES),ratio of remaining linoleic acid [1],inhibition of tyrosinase activity compared with arbutin (FIG. 1) (mushroom tyrosinase),ability of scavenging radical compared with dl-α-tocopherol [2],Ratio of scavenging DPPH radical [2],"ratio of remaining linoleic acid ([1]; 2 weeks later, 40° C., 0.01 g test compound, 0.2 g linoleic acid, HPLC)","ratio of remaining linoleic acid ([1]; 3 weeks later, 40° C., 0.01 g test compound, 0.2 g linoleic acid, HPLC)","ratio of remaining linoleic acid ([1]; 4 weeks later, 40° C., 0.01 g test compound, 0.2 g linoleic acid, HPLC)","ratio of remaining linoleic acid ([1]; one week later, 40° C., 0.01 g test compound, 0.2 g linoleic acid, HPLC)"
CCCCCC(CC(=O)CCc1ccc(O)c(OC)c1)OC (stereo not drawn) [Compound of formula (11)],90.5%,superior to that of arbutin,higher levels than that of dl-α-tocopherol,35.1%,–,–,–,–
"Cc1c(C)c2c(c(C)c1O)CCC(C)(CCCC(C)CCCC(C)CCCC(C)C)O2 (racemic) [Tocopherol, dl-α-tocopherol]",–,–,–,26.7%,73.2%,62.6%,57.3%,83.6%
CCCCCC(CC(O)CCc1ccc(O)c(OC)c1)OC (stereo not drawn) [Compound of formula (12)],89.2%,–,higher levels than that of dl-α-tocopherol,40.0%,–,–,–,–
